Common to all, as to conditions: incubation time: 72 h
Assay [1] relates to BT-549. The assay can be described thus: normalised viability (% of control), CellTiter-Blue; higher = more viable cells (about 100 = DMSO control). The protocol: (§1)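 DSRT, CellTiter-Blue viability, 72 h incubation. Signal is normalised to DMSO and benzethonium chloride controls. Value is the normalised response at dose 3.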
(In general: The colour change of resazurin is a common sign of viable cells or microbes.)

The subject of assay [2] is CAL-51. The description is as above. As for the experimental part: as §1
For assay [3], the system named is DU-4475. The description is as above. The protocol: as §1
Assay [4] has as its system HCC1937. The description is as above. As for the experimental part:
as §1

Assay [5] concerns Hs578T. The assay is described as above. The protocol: as §1
Assay [6] concerns CAL-148. The assay is described as above. The protocol:
(§2)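 DSRT, CellTiter-Blue viability, 72 h incubation. Signal is normalised to DMSO and benzethonium chloride controls. Value is the normalised response at dose 7.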

The subject of assay [7] is CAL-51. The assay is described as above. The protocol:
as §2
This is another data set of the same source.

For assay [8], the system named is CAL-85-1. The assay is described as above. As for the experimental part:
as §2

Assay [9] relates to DU-4475. The description is as above. As for the experimental part: as §2
This is another data set of the same source.

Assay [10] relates to MDA-MB-453. Described as above. The protocol: as §2
Assay [11] concerns BT-474. Nature of the assay: normalised response (% of control), CellTiter-Glo; higher = more viable cells (100 = DMSO, 0 = benzethonium chloride kill control). A digest of the protocol:
(§3)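 Two readouts were taken after 72 h: CellTox Green fluorescence (485/520 nm) first, then CellTiter-Glo luminescence after 10 min at room temperature. Breast cancer cell lines had been seeded as 20 µl suspension into 384-well plates holding compound at 5 concentrations in 10-fold steps across a compound-specific 10,000-fold range. Each value is a normalised signal at a single concentration, with plates scaled to 0.1 % DMSO (100) and a positive kill control (0).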
Background: Cellular ATP, detected with luciferase, serves as a proxy for viable cell number.

Assay [12] has as its system BT-549. The assay is described as above. A digest of the protocol: as §3
In assay [13] the test system is CAL-120. The assay is described as above. A digest of the protocol: as §3
For assay [14], the system named is CAL-148. Described as above. A digest of the protocol:
as §3

For assay [15], the system named is CAL-51. The assay is described as above. A digest of the protocol: as §3
Assay [16] relates to CAL-85-1. The description is as above. A digest of the protocol:
as §3

For assay [17], the system named is HCC1143. Described as above. A digest of the protocol: as §3
Assay [18] has as its system HCC1599. The assay is described as above. A digest of the protocol:
as §3

The test system of assay [19] is HCC1937. The description is as above. A digest of the protocol:
as §3

For assay [20], the system named is HDQ-P1. The assay is described as above. A digest of the protocol:
as §3

Assay [21] deals with Hs578T. Described as above. A digest of the protocol: as §3
Assay [22] concerns MCF-10A. The description is as above. A digest of the protocol:
as §3

For assay [23], the system named is MDA-MB-231. Described as above. A digest of the protocol:
as §3

In assay [24] the test system is MDA-MB-436. Described as above. A digest of the protocol:
as §3

Assay [25] concerns MDA-MB-453. The assay is described as above. A digest of the protocol:
as §3

In assay [26] the test system is MDA-MB-468. The assay is described as above. A digest of the protocol:
as §3

The subject of assay [27] is MFM-223. The description is as above. A digest of the protocol:
as §3

Assay [28] has as its system SK-BR-3. Described as above. A digest of the protocol:
as §3

Values joined by “and” are separate entries in the source; they are usually repeats but may differ in a detail not shown here. Equal values may be shown once.

On to `Cc1c(N)nc([C@H](CC(N)=O)NC[C@H](N)C(N)=O)nc1C(=O)N[C@H](C(=O)N[C@H](C)[C@@H](O)[C@H](C)C(=O)N[C@H](C(=O)NCCc1nc(-c2nc(C(=O)NCCC[S+](C)C)cs2)cs1)[C@@H](C)O)[C@@H](OC1OC(CO)C(O)C(O)C1OC1OC(CO)C(O)C(OC(N)=O)C1O)c1cnc[nH]1` (stereo partly drawn) [Bleomycin], for which the normalised viability was 61.4% in assay [1] (100 nM); 98.2% in assay [2] (10 nM); 120% in assay [3] (10 nM); 91.4% in assay [4] (100 nM); 68.7% in [5] (100 nM).
As for `Cc1cc2c(F)c(Oc3ncnn4cc(OC[C@@H](C)O)c(C)c34)ccc2[nH]1` [Brivanib], the normalised viability in [1] (10 nM) was 93.9%; in assay [2] (1 nM), 91.8%; in assay [3] (1 nM), 96.3%; in assay [4] (10 nM), 97.2%; in assay [5] (10 nM) it was 88.9%.
As for `CCCCCOC(=O)Nc1nc(=O)n([C@@H]2O[C@H](C)[C@@H](O)[C@H]2O)cc1F` [Capecitabine], the normalised viability was 103% and 97.5% in assay [1] (100 nM); 110% and 102% in assay [2] (10 nM); 97.4% and 107% in [3] (10 nM); 86.1% and 80.9% in assay [4] (100 nM); 83.7% and 96.8% in assay [5] (100 nM).
With `CCCCCOC(=O)Nc1nc(=O)n([C@@H]2O[C@H](C)[C@@H](O)[C@H]2O)cc1F` [Capecitabine] (1000 nM), the normalised viability in assay [6] was 105% and 102%; in assay [7] it was 106% and 104%; in assay [8] it was 79.7% and 96.2%; in assay [9] it was 87.4% and 85.9%; in assay [10], 86.8% and 94.9%. The normalised response was determined as 103% in assay [11]; 104% in assay [12]; 107% in assay [13]; 98.6% in assay [14]; 112% in assay [15]; 92.2% in [16]. Moreover, the normalised response was 103% in assay [17]; 104% in assay [18]; 94% in assay [19]; 96.2% in [20]; 107% in assay [21]; 97% in assay [22]. Besides, the normalised response amounted to 98.2% in assay [23]; 98.7% in [24]; 111% in assay [25]; 101% in assay [26]; 102% in assay [27]; 105% in assay [28].
Consider `CC(C)C[C@H](NC(=O)[C@H](CCc1ccccc1)NC(=O)CN1CCOCC1)C(=O)N[C@@H](Cc1ccccc1)C(=O)N[C@@H](CC(C)C)C(=O)[C@@]1(C)CO1` [Carfilzomib], for which the normalised viability was found to be 12.5% in [1] (10 nM); 106% in assay [2] (1 nM); 93.5% in [3] (1 nM); 22.8% in [4] (10 nM); 13.8% in [5] (10 nM).
With `Nc1nc(Cl)nc2c1ncn2[C@@H]1O[C@H](CO)[C@@H](O)[C@@H]1F` [Clofarabine], the normalised viability in [1] (100 nM) turned out to be 85.6%; in [2] (10 nM), 111%; in assay [3] (10 nM) it was 105%; in assay [4] (100 nM), 80%; in assay [5] (100 nM) it was 84.6%.
For `CCN(CC)CCOc1ccc(C(=C(Cl)c2ccccc2)c2ccccc2)cc1` [Clomifene], in that order: 118%, 97.5%, 103%, 100% and 95.7%.
For the compound `C[C@@H]1C[C@H]2[C@@H]3CCC4=CC(=O)C=C[C@]4(C)[C@@]3(F)[C@@H](O)C[C@]2(C)[C@@]1(O)C(=O)CO` [Dexamethasone], the normalised viability in [1] (100 nM) came to 88.6%; in [2] (10 nM) it was 94.9%; in [3] (10 nM), 97.2%; in assay [4] (100 nM), 94%; in [5] (100 nM) it was 97.2%.
As for `CC(C)C(=O)Nc1ccc([N+](=O)[O-])c(C(F)(F)F)c1` [Flutamide], the normalised viability in [1] (100 nM) stood at 85.8%; in [2] (10 nM), 112%; in assay [3] (10 nM), 92.6%; in assay [4] (100 nM) it was 108%; in [5] (100 nM) it was 92%.
Consider `COc1cc2c(Oc3ccc(NC(=O)C4(C(=O)Nc5ccc(F)cc5)CC4)cc3F)ccnc2cc1OCCCN1CCOCC1` [Foretinib], for which the normalised viability in assay [1] (10 nM) stood at 107%; in assay [2] (1 nM) it was 93.2%; in [3] (1 nM), 96.6%; in assay [4] (10 nM) it was 97.7%; in [5] (10 nM), 97.5%.
For the compound `NC(=O)NO` [Hydroxyurea], the normalised viability worked out at 103% in assay [1] (1000 nM); 111% in [2] (100 nM); 119% in assay [3] (100 nM); 91.4% in [4] (1000 nM); 98.2% in [5] (1000 nM).
Take `O=NN(CCCl)C(=O)NC1CCCCC1` [Lomustine]: the normalised viability in assay [1] (100 nM) was determined as 114%; in assay [2] (10 nM), 115%; in [3] (10 nM), 109%; in [4] (100 nM) it was 87.3%; in assay [5] (100 nM) it was 94.6%.

The record behind these values is the supplement of paper PMC4862054.
